In patent EP0243192B1, “Antiviral 8-Phenylxanthines” (THE WELLCOME FOUNDATION LIMITED, priority 1986, dated 1987):

Columns and labels:
[1] = standard LD50 test, intraperitoneal administration to mice; settings: mouse, in vivo, ip, read-out: LD₅₀
Method: The toxicity of a representative number of compounds of the present invention was determined by using the standard LD₅₀ test.

HIV = test: in-vitro anti-HIV assay system as described in Mitsuya et al.; format: cell-based; settings: for effective concentration: concentration of the drug at which effects were seen (3µM to 30µM)
Method: The anti-HIV activity of various compounds was tested using an in-vitro assay system as described in H Mitsuya et al; (Proc Natl. Acad.Sci. USA Vol 82 pp 7096-7100, October 1985).
From the information obtained the 50% effective dose (ED₅₀ value) was estimated and the results expressed as active (+) or very active (++).

Structure (SMILES)	LD50 [1] [mg/kg]	effective concentration (HIV) [µM]	anti-HIV activity (HIV; statement in words)
CC(C)Cn1c(=O)n(C)c(=O)c2nc(-c3ccc(/C=C/C(=O)O)cc3)[nH]c21 [(E)-4-(1,2,3,6-tetrahydro-3-isobutyl-1-methyl-2,6-dioxo-9H-purin-8-yl)cinnamic acid]	> 100		
CC(C)Cn1c(=O)[nH]c(=O)c2nc(-c3ccc(/C=C/C(=O)O)cc3)[nH]c21 [(E)-4-(1,2,3,6-tetrahydro-3-isobutyl-2,6-dioxo-9H-purin-8-yl)cinnamic acid]	> 100		
Cn1c(=O)[nH]c(=O)c2nc(-c3ccc(/C=C/C(=O)O)cc3)[nH]c21 [(E)-4-(1,2,3,6-tetrahydro-3-methyl-2,6-dioxo-9H-purin-8-yl)cinnamic acid]	> 500		
O=C(O)/C=C/c1ccc(-c2nc3c(=O)n(Cc4ccccc4)c(=O)n(Cc4ccccc4)c3[nH]2)cc1 [(E)-4-(1,3-dibenzyl-1,2,3,6-tetrahydro-2,6-dioxo-9H-purin-8-yl)cinnamic acid]		3 to 15	particularly potent
CCCCn1c(=O)c2nc(-c3ccc(/C=C/C(=O)O)cc3)[nH]c2n(CCCC)c1=O [(E)-4-(1,3-dibutyl-1,2,3,6-tetrahydro-2,6-dioxo-9H-purin-8-yl)cinnamic acid]	> 100	30	
CCCn1c(=O)n(Cc2ccccc2)c(=O)c2nc(-c3ccc(/C=C/C(=O)O)cc3)[nH]c21 [(E)-4-(1-Benzyl-1,2,3,6-tetrahydro-2,6-dioxo-3-propyl-9H-purin-8-yl)cinnamic acid]		30	
CCCn1c(=O)c2nc(-c3ccc(/C=C/C(=O)O)cc3)[nH]c2n(Cc2ccccc2)c1=O [(E)-4-(3-Benzyl-1,2,3,6-tetrahydro-2,6-dioxo-1-propyl-9H-purin-8-yl)cinnamic acid]		30	
Cn1c(=O)c2nc(-c3ccc(/C=C/C(=O)O)cc3)[nH]c2n(Cc2ccccc2)c1=O [(E)-4-(3-benzyl-1,2,3,6-tetrahydro-1-methyl-2,6-dioxo-9H-purin-8-yl)cinnamic acid]	> 100		
CCCCn1c(=O)n(C)c(=O)c2nc(-c3ccc(/C=C/C(=O)O)cc3)[nH]c21 [(E)-4-(3-butyl-1,2,3,6-tetrahydro-1-methyl-2,6-dioxo-9H-purin-8-yl)cinnamic acid]	> 100		
